Laboratory results as given in ChEMBL document CHEMBL1138308, “Synthesis and antibacterial activity of potent heterocyclic oxazolidinones and the identification of RBx 8700” (2007).
Values after ≈ are worked out from the molar mass of the structure shown.

How the values were obtained:
Assay type in all cases: functional
Enterococcus faecium = assay: Antibacterial activity against vancomycin-resistant Enterococcus faecium 6A after 24 hrs by agar dilution method
Streptococcus pyogenes = assay: Antibacterial activity against Streptococcus pyogenes ATCC 19615 after 24 hrs by agar dilution method; conditions: ATCC 19615, 24 h
Streptococcus pneumoniae = assay: Antibacterial activity against Streptococcus pneumoniae ATCC 6303 after 24 hrs by agar dilution method; conditions: ATCC 6303, 24 h
Haemophilus influenzae = assay: Antibacterial activity against Haemophilus influenzae
Enterococcus faecalis = assay: Antibacterial activity against Enterococcus faecalis ATCC 29212 after 24 hrs by agar dilution method; conditions: ATCC 29212, 24 h
[1] = test system: Mycobacterium tuberculosis; assay: Antibacterial activity against sensitive Mycobacterium tuberculosis
Moraxella catarrhalis = assay: Antibacterial activity against Moraxella catarrhalis
Staphylococcus aureus [2] = assay: Antibacterial activity against methicillin-resistant Staphylococcus aureus 562 infected orally dosed Swiss albino mouse after 7 days; conditions: po, 168 h
Staphylococcus aureus [3] = assay: Antibacterial activity against methicillin-resistant Staphylococcus aureus 33 after 24 hrs by agar dilution method
Staphylococcus aureus [4] = assay: Antibacterial activity against Staphylococcus aureus ATCC 25923 after 24 hrs by agar dilution method; conditions: ATCC 25923, 24 h
Staphylococcus aureus [5] = assay: Antibacterial activity against methicillin-resistant Staphylococcus aureus 562 after 24 hrs by agar dilution method
Staphylococcus aureus [6] = assay: Antibacterial activity against methicillin-resistant Staphylococcus aureus 562 infected sc dosed Swiss albino mouse after 7 days; conditions: 168 h

Compound	MIC (Enterococcus faecium) [µg/mL]	MIC (Streptococcus pyogenes) [µg/mL]	MIC (Streptococcus pneumoniae) [µg/mL]	MIC50 (Haemophilus influenzae) [µg/mL]	MIC (Enterococcus faecalis) [µg/mL]	MIC90 [1] [µg/mL]	MIC50 (Moraxella catarrhalis) [µg/mL]	ED50 (Staphylococcus aureus [2]) [mg/kg]	MIC (Staphylococcus aureus [3]) [µg/mL]	MIC (Staphylococcus aureus [4]) [µg/mL]	MIC (Staphylococcus aureus [5]) [µg/mL]	ED50 (Staphylococcus aureus [6]) [mg/kg]
CC(=O)NC[C@H]1CN(c2ccc(N3CCN(c4ccc([N+](=O)[O-])s4)CC3)c(F)c2)C(=O)O1	0.25 (≈ 0.539 µM)	0.125 (≈ 0.27 µM)	0.125 (≈ 0.27 µM)	8 (≈ 17.3 µM)	0.25 (≈ 0.539 µM)	0.25 (≈ 0.539 µM)	2 (≈ 4.32 µM)	11.2	0.25 (≈ 0.539 µM)	0.25 (≈ 0.539 µM)	0.25 (≈ 0.539 µM)	–
CC(=O)NC[C@H]1CN(c2ccc(N3CCN(c4ccc([N+](=O)[O-])s4)CC3)cc2)C(=O)O1	1 (≈ 2.24 µM)	0.5 (≈ 1.12 µM)	0.5 (≈ 1.12 µM)	–	1 (≈ 2.24 µM)	–	–	–	1 (≈ 2.24 µM)	2 (≈ 4.49 µM)	1 (≈ 2.24 µM)	–
CC(=O)NC[C@H]1CN(c2ccc(N3CCN(c4ccc(C=O)s4)CC3)c(F)c2)C(=O)O1	1 (≈ 2.24 µM)	0.5 (≈ 1.12 µM)	0.5 (≈ 1.12 µM)	–	< 0.25	–	–	> 25	0.5 (≈ 1.12 µM)	1 (≈ 2.24 µM)	0.5 (≈ 1.12 µM)	–
CC(=O)NC[C@H]1CN(c2ccc(N3CCN(C(=O)/C=C/c4ccc([N+](=O)[O-])o4)CC3)c(F)c2)C(=O)O1	< 0.125	< 0.125	0.5 (≈ 0.997 µM)	–	0.5 (≈ 0.997 µM)	–	–	> 25	0.25 (≈ 0.499 µM)	0.5 (≈ 0.997 µM)	0.25 (≈ 0.499 µM)	–
CC(=O)NC[C@H]1CN(c2ccc(N3CCN(C(=O)c4ccc([N+](=O)[O-])s4)CC3)c(F)c2)C(=O)O1	0.5 (≈ 1.02 µM)	0.125 (≈ 0.254 µM)	0.5 (≈ 1.02 µM)	–	0.5 (≈ 1.02 µM)	–	–	9.77	0.06 (≈ 0.122 µM)	0.125 (≈ 0.254 µM)	0.06 (≈ 0.122 µM)	–
CC(=O)NC[C@H]1CN(c2ccc(N3CCN(C(C)c4ccc([N+](=O)[O-])s4)CC3)c(F)c2)C(=O)O1 (stereo partly drawn)	0.5 (≈ 1.02 µM)	2 (≈ 4.07 µM)	2 (≈ 4.07 µM)	–	0.5 (≈ 1.02 µM)	–	–	> 25	0.5 (≈ 1.02 µM)	0.5 (≈ 1.02 µM)	0.5 (≈ 1.02 µM)	–
CC(=O)NC[C@H]1CN(c2ccc(N3CCN(C(C)c4ccc([N+](=O)[O-])o4)CC3)c(F)c2)C(=O)O1 (stereo partly drawn)	0.25 (≈ 0.526 µM)	0.06 (≈ 0.126 µM)	1 (≈ 2.1 µM)	–	0.125 (≈ 0.263 µM)	–	–	9.1	1 (≈ 2.1 µM)	1 (≈ 2.1 µM)	1 (≈ 2.1 µM)	–
CC(=O)NC[C@H]1CN(c2ccc(N3CCN(C(=O)c4ccc([N+](=O)[O-])o4)CC3)c(F)c2)C(=O)O1	1 (≈ 2.1 µM)	2 (≈ 4.21 µM)	2 (≈ 4.21 µM)	–	1 (≈ 2.1 µM)	–	–	8.24	0.5 (≈ 1.05 µM)	1 (≈ 2.1 µM)	–	–
CC(=O)NC[C@H]1CN(c2ccc(N3CCN(c4ccc(C#N)s4)CC3)c(F)c2)C(=O)O1	–	0.25 (≈ 0.564 µM)	0.5 (≈ 1.13 µM)	–	2 (≈ 4.51 µM)	–	–	–	2 (≈ 4.51 µM)	4 (≈ 9.02 µM)	2 (≈ 4.51 µM)	–
CC(=O)NC[C@H]1CN(c2ccc(N3CCN(c4ccc([N+](=O)[O-])o4)CC3)c(F)c2)C(=O)O1	8 (≈ 17.9 µM)	4 (≈ 8.94 µM)	4 (≈ 8.94 µM)	–	8 (≈ 17.9 µM)	–	–	–	8 (≈ 17.9 µM)	16 (≈ 35.8 µM)	16 (≈ 35.8 µM)	–
CC(=O)NC[C@H]1CN(c2ccc(N3CCOCC3)c(F)c2)C(=O)O1 [LINEZOLID]	2 (≈ 5.93 µM)	2 (≈ 5.93 µM)	–	–	–	–	–	5.6	–	–	–	–
CC(=O)NC[C@H]1CN(c2ccc(N3CCN(Cc4ccc([N+](=O)[O-])s4)CC3)c(F)c2)C(=O)O1	8 (≈ 16.8 µM)	1 (≈ 2.09 µM)	8 (≈ 16.8 µM)	–	8 (≈ 16.8 µM)	–	–	> 25	8 (≈ 16.8 µM)	8 (≈ 16.8 µM)	8 (≈ 16.8 µM)	–
CC(=O)NC[C@H]1CN(c2ccc(N3CCN(c4ccc(C(C)=O)s4)CC3)c(F)c2)C(=O)O1	> 16	> 16	> 16	–	> 16	–	–	–	> 16	> 16	> 16	–
CN[C@H](CC(C)C)C(=O)N[C@H]1C(=O)N[C@@H](CC(N)=O)C(=O)N[C@H]2C(=O)N[C@H]3C(=O)N[C@H](C(=O)N[C@H](C(=O)O)c4cc(O)cc(O)c4-c4cc3ccc4O)[C@H](O)c3ccc(c(Cl)c3)Oc3cc2cc(c3O[C@@H]2O[C@H](CO)[C@@H](O)[C@H](O)[C@H]2O[C@H]2C[C@](C)(N)[C@H](O)[C@H](C)O2)Oc2ccc(cc2Cl)[C@H]1O [VANCOMYCIN]	> 16	–	0.5 (≈ 0.345 µM)	–	–	–	–	–	–	–	–	8.8
CC(=O)NC[C@H]1CN(c2ccc(N3CCN(C(=O)/C=C/c4ccc([N+](=O)[O-])s4)CC3)c(F)c2)C(=O)O1	0.5 (≈ 0.966 µM)	0.5 (≈ 0.966 µM)	1 (≈ 1.93 µM)	–	1 (≈ 1.93 µM)	–	–	> 25	0.5 (≈ 0.966 µM)	0.5 (≈ 0.966 µM)	1 (≈ 1.93 µM)	–
CC(=O)NC[C@H]1CN(c2cc(F)c(N3CCN(c4ccc([N+](=O)[O-])s4)CC3)c(F)c2)C(=O)O1	0.25 (≈ 0.519 µM)	0.5 (≈ 1.04 µM)	0.5 (≈ 1.04 µM)	–	0.25 (≈ 0.519 µM)	–	–	> 25	0.25 (≈ 0.519 µM)	0.25 (≈ 0.519 µM)	0.25 (≈ 0.519 µM)	–
CC(=O)NC[C@H]1CN(c2ccc(N3CCN(Cc4ccc([N+](=O)[O-])o4)CC3)c(F)c2)C(=O)O1.Cl [RANBEZOLID CHLORIDE]	2	0.125	0.125	–	2	–	–	4.33	2	1	1	–
